Reference: ChEMBL document CHEMBL5143714, “Discovery of BMS-986339, a Pharmacologically Differentiated Farnesoid X Receptor Agonist for the Treatment of Nonalcoholic Steatohepatitis” (J Med Chem, 2022)

What was measured:
Bile acid receptor = biological target: T1, Bile acid receptor (Homo sapiens, UniProt Q96RI1); test: Agonist activity at Gal4-fused human FXR in HEK293 cells incubated for 15 min by luciferase reporter assay; assay type: cell-based
T1 sequence (Q96RI1 whole entry): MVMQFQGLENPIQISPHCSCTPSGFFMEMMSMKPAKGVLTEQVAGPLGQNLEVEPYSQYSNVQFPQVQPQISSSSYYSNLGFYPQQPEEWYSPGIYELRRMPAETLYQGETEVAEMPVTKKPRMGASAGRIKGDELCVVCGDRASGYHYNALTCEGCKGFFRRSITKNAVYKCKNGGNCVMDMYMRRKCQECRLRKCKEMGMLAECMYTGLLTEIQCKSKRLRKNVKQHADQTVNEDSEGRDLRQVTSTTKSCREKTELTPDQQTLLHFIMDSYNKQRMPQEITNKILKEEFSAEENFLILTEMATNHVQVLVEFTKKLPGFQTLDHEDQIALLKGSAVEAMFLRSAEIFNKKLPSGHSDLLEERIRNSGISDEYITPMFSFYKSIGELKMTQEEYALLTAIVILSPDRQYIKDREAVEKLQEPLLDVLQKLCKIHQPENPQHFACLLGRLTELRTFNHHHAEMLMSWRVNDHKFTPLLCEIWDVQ

[1] = Metabolic stability in rat liver microsome assessed as parent compound remaining at […] measured after 10 mins; assay type: ADME; settings: liver microsomes, read-out: Stability
[2] = Metabolic stability in human liver microsome assessed as parent compound remaining at […] measured after 10 mins; assay type: ADME; settings: liver microsomes, read-out: Stability
[3] = Metabolic stability in mouse liver microsome assessed as parent compound remaining at […] measured after 10 mins; assay type: ADME; settings: liver microsomes, read-out: Stability
[4] = biological target: T2, Nuclear receptor subfamily 1 group I member 2 (Homo sapiens, UniProt O75469); test: Transactivation of PXR (unknown origin); assay type: ADME
T2 sequence (O75469 whole entry): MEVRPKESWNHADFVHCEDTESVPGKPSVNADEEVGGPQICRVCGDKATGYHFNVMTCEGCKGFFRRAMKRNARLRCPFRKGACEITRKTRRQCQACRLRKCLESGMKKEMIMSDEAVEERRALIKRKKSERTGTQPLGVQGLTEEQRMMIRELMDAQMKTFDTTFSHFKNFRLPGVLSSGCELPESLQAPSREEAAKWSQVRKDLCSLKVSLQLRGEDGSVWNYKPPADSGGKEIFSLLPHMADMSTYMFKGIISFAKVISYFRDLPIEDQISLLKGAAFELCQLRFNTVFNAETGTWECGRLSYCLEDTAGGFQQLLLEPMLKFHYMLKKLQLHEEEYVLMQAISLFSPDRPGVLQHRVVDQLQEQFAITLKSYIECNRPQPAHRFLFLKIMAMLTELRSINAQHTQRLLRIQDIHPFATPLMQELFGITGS

[5] = biological target: T2, Nuclear receptor subfamily 1 group I member 2; test: Transactivation of PXR (unknown origin) relative to refampicin; assay type: ADME
Cytochrome P450 2C9 = Cytochrome P450 2C9 (Homo sapiens, UniProt P11712); test: Inhibition of recombinant CYP2C9 (unknown origin) using fluorogenic substrate preincubated for 15 min followed by NADPH addition measured after 2 hrs by fluorescence method; assay type: ADME
Cytochrome P450 2C19 = Cytochrome P450 2C19 (Homo sapiens, UniProt P33261); test: Inhibition of recombinant CYP2C19 (unknown origin) using fluorogenic substrate preincubated for 15 min followed by NADPH addition measured after 2 hrs by fluorescence method; assay type: ADME
[6] = Metabolic stability in mouse liver microsome assessed as parent compound remaining at 1 mg/mL measured after 10 mins; assay type: ADME; settings: liver microsomes, read-out: Stability
[7] = Metabolic stability in rat liver microsome assessed as parent compound remaining at 1 mg/mL measured after 10 mins; assay type: ADME; settings: liver microsomes, read-out: Stability
[8] = Metabolic stability in human liver microsome assessed as parent compound remaining at 1 mg/mL measured after 10 mins; assay type: ADME; settings: liver microsomes, read-out: Stability

Cytochrome P450 2C19, sequence (P33261 whole entry): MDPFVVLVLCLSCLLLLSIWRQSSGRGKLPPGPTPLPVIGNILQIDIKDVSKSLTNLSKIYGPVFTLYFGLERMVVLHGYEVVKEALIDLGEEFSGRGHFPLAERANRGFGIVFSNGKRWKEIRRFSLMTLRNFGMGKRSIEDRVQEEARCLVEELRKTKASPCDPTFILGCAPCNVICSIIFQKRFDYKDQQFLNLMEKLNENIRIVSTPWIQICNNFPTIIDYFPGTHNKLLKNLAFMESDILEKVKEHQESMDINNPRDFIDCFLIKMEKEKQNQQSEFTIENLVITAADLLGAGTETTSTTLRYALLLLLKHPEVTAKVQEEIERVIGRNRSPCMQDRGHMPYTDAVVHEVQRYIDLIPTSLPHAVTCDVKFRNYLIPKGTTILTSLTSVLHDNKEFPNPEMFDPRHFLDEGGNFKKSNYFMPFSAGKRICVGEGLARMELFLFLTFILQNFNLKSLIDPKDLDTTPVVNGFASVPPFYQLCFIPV
Cytochrome P450 2C9, sequence (P11712 whole entry): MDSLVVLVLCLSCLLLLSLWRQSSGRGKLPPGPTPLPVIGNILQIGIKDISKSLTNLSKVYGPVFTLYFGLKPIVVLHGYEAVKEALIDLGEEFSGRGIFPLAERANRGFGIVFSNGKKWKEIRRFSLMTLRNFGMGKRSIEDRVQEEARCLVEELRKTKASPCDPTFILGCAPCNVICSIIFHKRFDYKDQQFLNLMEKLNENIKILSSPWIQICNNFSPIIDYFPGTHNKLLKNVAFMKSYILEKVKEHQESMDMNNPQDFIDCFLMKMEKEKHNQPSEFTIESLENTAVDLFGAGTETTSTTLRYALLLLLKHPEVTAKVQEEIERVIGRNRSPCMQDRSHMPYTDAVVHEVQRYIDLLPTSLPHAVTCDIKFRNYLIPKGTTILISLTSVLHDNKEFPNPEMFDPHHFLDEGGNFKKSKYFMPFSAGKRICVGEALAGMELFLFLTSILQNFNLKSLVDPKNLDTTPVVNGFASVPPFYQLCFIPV

Compound: CCOc1ncc(-c2cccc(N(CC34CCC(c5noc(C(C)(C)C)n5)(CC3)CC4)C(=O)C34CC(F)(C3)C4)c2)cn1
- EC50 (Bile acid receptor): 41 nM
- remaining at 10 min [1]: 80%
- remaining at 10 min [2]: 100%
- remaining at 10 min [3]: 77%
- EC50 [4]: 50000 nM
- Emax [5]: 9%
- IC50 (Cytochrome P450 2C9): 1000 nM
- IC50 (Cytochrome P450 2C19): 6000 nM

Compound: COC(=O)/C=C/c1cccc(N(CC23CCC(c4nc(C)no4)(CC2)CC3)C(=O)C2CCCCC2)c1
- remaining at 10 min [6]: 4%
- remaining at 10 min, 1 mg/mL [7]: 31%
- remaining at 10 min [8]: 6%
- EC50 (Bile acid receptor): 57 nM

Compound: O=C(C1CCS(=O)(=O)CC1)N(CC12CCC(c3nc(C4CC4)no3)(CC1)CC2)c1cccc(-c2nc(C3CC3)no2)c1
- EC50 (Bile acid receptor): 1090 nM
- remaining at 10 min [1]: 10%
- remaining at 10 min [2]: 100%
- remaining at 10 min [3]: 100%
- EC50 [4]: 4000 nM
- Emax [5]: 48%
- IC50 (Cytochrome P450 2C9): 8000 nM
- IC50 (Cytochrome P450 2C19): 8000 nM

Compound: CC(C)(C)c1noc(C23CCC(CN(C(=O)C45CC(F)(C4)C5)c4cccc(-c5nc(C6CC6)no5)c4)(CC2)CC3)n1
- EC50 (Bile acid receptor): 70 nM
- remaining at 10 min [1]: 86%
- remaining at 10 min [2]: 100%
- remaining at 10 min [3]: 100%
- EC50 [4]: 50000 nM
- Emax [5]: 11%
- IC50 (Cytochrome P450 2C9): 20000 nM
- IC50 (Cytochrome P450 2C19): 20000 nM

Compound: CC(C)(O)c1ccc(-c2cccc(N(CC34CCC(c5noc(C(C)(C)F)n5)(CC3)CC4)C(=O)[C@H]3C[C@@](C)(O)C3)c2)cc1
- EC50 (Bile acid receptor): 25 nM
- remaining at 10 min [1]: 100%
- remaining at 10 min [2]: 100%
- remaining at 10 min [3]: 99%
- EC50 [4]: 50000 nM
- Emax [5]: 13%
- IC50 (Cytochrome P450 2C9): 5000 nM
- IC50 (Cytochrome P450 2C19): 9000 nM

Compound: COc1cc(-c2cccc(N(CC34CCC(c5nc(C6CC6)no5)(CC3)CC4)C(=O)C3CCCCC3)c2)ccn1
- EC50 (Bile acid receptor): 95 nM

Compound: O=C(C1CCC(F)(F)CC1)N(CC12CCC(c3nc(C4CC4)no3)(CC1)CC2)c1cccc(-c2nc(C3CC3)no2)c1
- EC50 (Bile acid receptor): 149 nM
- remaining at 10 min [1]: 23%
- remaining at 10 min [2]: 100%
- remaining at 10 min [3]: 82%
- EC50 [4]: 8000 nM
- Emax [5]: 35%
- IC50 (Cytochrome P450 2C9): 20000 nM
- IC50 (Cytochrome P450 2C19): 300 nM

Compound: O=C(C1CCCCC1)N(CC12CCC(c3nc(C4CC4)no3)(CC1)CC2)c1cccc(-c2nc(C3CC3)no2)c1
- EC50 (Bile acid receptor): 44 nM
- remaining at 10 min [1]: 4%
- remaining at 10 min [2]: 38%
- remaining at 10 min [3]: 34%
- EC50 [4]: 6000 nM
- Emax [5]: 21%
- IC50 (Cytochrome P450 2C9): 20000 nM
- IC50 (Cytochrome P450 2C19): 20000 nM

Compound: COC(=O)/C=C/c1cccc(N(CC23CCC(c4ccc(N5CCOCC5)cc4)(CC2)CC3)C(=O)C2CCCCC2)c1
- EC50 (Bile acid receptor): 118 nM

Compound: COC(=O)/C=C/c1cccc(N(CC23CCC(c4ccc(N5CCCC5)cc4)(CC2)CC3)C(=O)C2CCCCC2)c1
- EC50 (Bile acid receptor): 299 nM

Compound: O=C(C1CC(F)(F)C1)N(CC12CCC(c3nc(C4CC4)no3)(CC1)CC2)c1cccc(-c2nc(C3CC3)no2)c1
- remaining at 10 min [1]: 72%
- remaining at 10 min [2]: 98%
- remaining at 10 min [3]: 100%
- EC50 [4]: 1000 nM
- Emax [5]: 62%
- IC50 (Cytochrome P450 2C9): 1000 nM
- IC50 (Cytochrome P450 2C19): 17000 nM

Compound: CCOC(=O)c1nc(-c2cccc(N(CC34CCC(c5nc(C6CC6)no5)(CC3)CC4)C(=O)C3CCCCC3)c2)cs1
- EC50 (Bile acid receptor): 919 nM

Compound: CCOc1ncc(-c2cccc(N(CC34CCC(c5noc(C(C)(C)C)n5)(CC3)CC4)C(=O)[C@H]3C[C@@](C)(O)C3)c2)cn1
- remaining at 10 min [1]: 44%
- remaining at 10 min [2]: 64%
- remaining at 10 min [3]: 84%
- EC50 [4]: 1500 nM
- Emax [5]: 37%
- IC50 (Cytochrome P450 2C9): 1000 nM
- IC50 (Cytochrome P450 2C19): 9000 nM

Compound: CN1CCC(C(=O)N(CC23CCC(c4nc(C5CC5)no4)(CC2)CC3)c2cccc(-c3nc(C4CC4)no3)c2)CC1
- EC50 (Bile acid receptor): 1640 nM
- remaining at 10 min [1]: 37%
- remaining at 10 min [2]: 98%
- remaining at 10 min [3]: 71%
- EC50 [4]: 50000 nM
- Emax [5]: 11%
- IC50 (Cytochrome P450 2C9): 20000 nM
- IC50 (Cytochrome P450 2C19): 13000 nM

Compound: CCOc1ncc(-c2cccc(N(CC34CCC(c5noc(C(C)(C)C)n5)(CC3)CC4)C(=O)[C@H]3C[C@](O)(C(F)(F)F)C3)c2)cn1
- EC50 (Bile acid receptor): 152 nM
- remaining at 10 min [1]: 73%
- remaining at 10 min [2]: 69%
- remaining at 10 min [3]: 86%
- EC50 [4]: 50000 nM
- Emax [5]: 10%
- IC50 (Cytochrome P450 2C9): 1000 nM
- IC50 (Cytochrome P450 2C19): 10000 nM

Compound: O=C(C1CCOCC1)N(CC12CCC(c3nc(C4CC4)no3)(CC1)CC2)c1cccc(-c2nc(C3CC3)no2)c1
- EC50 (Bile acid receptor): 114 nM
- remaining at 10 min [1]: 0%
- remaining at 10 min [2]: 86%
- remaining at 10 min [3]: 8%
- IC50 (Cytochrome P450 2C9): 1000 nM
- IC50 (Cytochrome P450 2C19): 20000 nM

Compound: CCOc1ncc(-c2cccc(N(CC34CCC(c5noc(C(F)F)n5)(CC3)CC4)C(=O)C34CC(F)(C3)C4)c2)cn1
- EC50 (Bile acid receptor): 170 nM
- remaining at 10 min [1]: 64%
- remaining at 10 min [2]: 88%
- remaining at 10 min [3]: 84%
- EC50 [4]: 2000 nM
- Emax [5]: 28%
- IC50 (Cytochrome P450 2C9): 2000 nM
- IC50 (Cytochrome P450 2C19): 7000 nM

Compound: CC(C)(C)c1nc(C23CCC(CN(C(=O)C45CC(F)(C4)C5)c4cccc(-c5nnc(C6CC6)o5)c4)(CC2)CC3)no1
- EC50 (Bile acid receptor): 45 nM
- remaining at 10 min [1]: 60%
- remaining at 10 min [2]: 76%
- remaining at 10 min [3]: 52%
- IC50 (Cytochrome P450 2C19): 1000 nM

Compound: COc1cccc(-c2cccc(N(CC34CCC(c5nc(C6CC6)no5)(CC3)CC4)C(=O)C3CCCCC3)c2)c1
- EC50 (Bile acid receptor): 92 nM

Compound: CCOc1ccc(-c2cccc(N(CC34CCC(c5noc(C(C)(C)C)n5)(CC3)CC4)C(=O)C34CC(F)(C3)C4)c2)cn1
- remaining at 10 min [1]: 79%
- remaining at 10 min [2]: 94%
- remaining at 10 min [3]: 58%
- EC50 [4]: 50000 nM
- Emax [5]: 9%
- IC50 (Cytochrome P450 2C9): 2000 nM
- IC50 (Cytochrome P450 2C19): 8000 nM

Compound: COC(=O)/C=C/c1cccc(N(CC23CCC(c4ccc(OC)cc4)(CC2)CC3)C(=O)C2CCCCC2)c1
- remaining at 10 min [6]: 35%
- remaining at 10 min, 1 mg/mL [7]: 8%
- remaining at 10 min [8]: 60%
- EC50 (Bile acid receptor): 142 nM

Compound: CCOc1cc(-c2cccc(N(CC34CCC(c5nc(C6CC6)no5)(CC3)CC4)C(=O)C3CCCCC3)c2)no1
- EC50 (Bile acid receptor): 59 nM

Compound: CC(C)(C)c1nc(C23CCC(CN(C(=O)C45CC(F)(C4)C5)c4cccc(-c5nc(C6CC6)no5)c4)(CC2)CC3)no1
- EC50 (Bile acid receptor): 29 nM
- remaining at 10 min [1]: 81%
- remaining at 10 min [2]: 97%
- remaining at 10 min [3]: 92%
- EC50 [4]: 50000 nM
- Emax [5]: 19%
- IC50 (Cytochrome P450 2C9): 3000 nM
- IC50 (Cytochrome P450 2C19): 9000 nM

Compound: COC(=O)/C=C/c1cccc(N(CC23CCC(c4ccc(C5CC5)cc4)(CC2)CC3)C(=O)C2CCCCC2)c1
- EC50 (Bile acid receptor): 111 nM

Compound: O=C(N(CC12CCC(c3nc(C4CC4)no3)(CC1)CC2)c1cccc(-c2nc(C3CC3)no2)c1)C12CC(F)(C1)C2
- remaining at 10 min [1]: 99%
- remaining at 10 min [2]: 100%
- remaining at 10 min [3]: 100%
- EC50 [4]: 1000 nM
- Emax [5]: 25%
- IC50 (Cytochrome P450 2C9): 2000 nM
- IC50 (Cytochrome P450 2C19): 2000 nM
